Laboratory results published in US20100184815A1 (priority 2008, published 2010).

Assays:
Assay type in all cases: cell-based
[1] = target: T1, Gal-4 hPPARγ (Homo sapiens, UniProt P37231); experiment: Gal4-hPPARγ transient transfection reporter assay in Cos cells; conditions: luciferase reporter, 24 hours with compound, scale 1-5, read-out: Gal-4 hPPAR γ EC50 (scaled number)
T1 construct: Plasmids pGal4-hPPARα, pGal4-hPPARγ, pGal4-hPPARδ and pG5-TK-pGL3 were constructed as previously described by Staels, Bart, et al., Nature 1998 Jun; 25
T1 sequence (P37231 238-505 limits assumed): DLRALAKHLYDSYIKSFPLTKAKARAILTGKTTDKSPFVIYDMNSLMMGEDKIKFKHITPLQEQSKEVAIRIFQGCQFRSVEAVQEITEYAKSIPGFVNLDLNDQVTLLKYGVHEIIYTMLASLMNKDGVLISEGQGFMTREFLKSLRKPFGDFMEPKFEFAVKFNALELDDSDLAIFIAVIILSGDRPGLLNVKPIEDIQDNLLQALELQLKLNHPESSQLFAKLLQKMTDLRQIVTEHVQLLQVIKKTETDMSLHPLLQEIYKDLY
Procedure, shortened: (§1)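 Cos cells transiently co-transfected with Gal4-hPPAR expression plasmid, pG5-TK-pGL3 luciferase reporter and β-galactosidase control, then treated 24 h with increasing compound concentrations in DMEM containing 0.2% FCS. Luciferase normalised to β-galactosidase; EC50 from curve fit, at least three experiments.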

[2] = target: T2, Gal-4 hPPARβ/δ (Homo sapiens, UniProt Q03181); experiment: Gal4-hPPARδ transient transfection reporter assay in Cos cells; conditions: luciferase reporter, 24 hours with compound, scale 1-5, read-out: Gal-4 hPPAR β/δ EC50 (scaled number)
T2 construct: Plasmids pGal4-hPPARα, pGal4-hPPARγ, pGal4-hPPARδ and pG5-TK-pGL3 were constructed as previously described by Staels, Bart, et al., Nature 1998 Jun; 25
T2 sequence (Q03181 171-441 limits assumed): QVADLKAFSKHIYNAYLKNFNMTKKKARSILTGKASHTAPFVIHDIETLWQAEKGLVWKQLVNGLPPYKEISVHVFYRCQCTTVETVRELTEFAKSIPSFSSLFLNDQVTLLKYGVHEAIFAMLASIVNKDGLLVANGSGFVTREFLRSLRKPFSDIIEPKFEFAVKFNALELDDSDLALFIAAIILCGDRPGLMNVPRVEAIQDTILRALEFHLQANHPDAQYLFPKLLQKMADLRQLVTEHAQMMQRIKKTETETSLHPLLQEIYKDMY
Procedure, shortened: as §1

[3] = target: T3, Full Length hPPARα (Homo sapiens, UniProt Q07869); experiment: Full length hPPARα transfection assay; conditions: full length receptor; read-out: Full Length hPPAR α EC50 (scaled number)
T3 construct: Full Length; expressed in transfected cells; host or cells: Cos cells
T3 sequence (Q07869 1-468): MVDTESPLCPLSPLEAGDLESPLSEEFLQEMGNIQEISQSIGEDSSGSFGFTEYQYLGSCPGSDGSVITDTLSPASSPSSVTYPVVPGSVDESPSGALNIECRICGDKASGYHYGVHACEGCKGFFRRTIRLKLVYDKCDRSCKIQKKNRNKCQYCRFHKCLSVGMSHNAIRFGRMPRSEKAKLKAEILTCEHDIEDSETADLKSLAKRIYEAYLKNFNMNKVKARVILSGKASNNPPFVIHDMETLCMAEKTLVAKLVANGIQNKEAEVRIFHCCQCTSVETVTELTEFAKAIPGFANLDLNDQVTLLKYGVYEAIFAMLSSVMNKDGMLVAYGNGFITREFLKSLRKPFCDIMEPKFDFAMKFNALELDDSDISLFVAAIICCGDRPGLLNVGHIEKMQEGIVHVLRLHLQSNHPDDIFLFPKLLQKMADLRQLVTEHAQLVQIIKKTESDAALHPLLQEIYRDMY
Description: (§2) Transient transfection assays. Cos cells were seeded in 60-mm dishes at a density of 5.5×10^5 cells/dish in Dulbecco's modified Eagle's medium (DMEM) supplemented with 10% fetal calf serum (FCS) and incubated at 37° C. for 24 hours before transfection. Cells were transfected in Opti-MEM (Gibco; Invitrogen, Carlsbad, Calif.) without FCS for 3 hours at 37° C., using polyethylenimine, with reporter and expression plasmids. The plasmid pBluescript (Stratagene, La Jolla, Calif.) was used as carrier DNA to set the final amount of DNA to 5.5 μg/dish. The pCMV-b-galactosidase expression plasmid was cotransfected as a control for transfection efficiency. Transfection was stopped by the addition of DMEM supplemented with 10% FCS, and cells were then incubated at 37° C. After 16 hours, cells were trypsinized and seeded in 96-well plates at the density of 2×10^4 cells/well and incubated for 6 hours in 10% FCS-containing DMEM. Cells were then incubated for 24 hours in DMEM containing 0.2% FCS and increasing concentrations of the compound tested or vehicle (DMSO). At the end of the experiment, cells were washed once with ice-cold PBS, lysed and the luciferase and b-galactosidase assays were performed in a luminometer and spectrophotomer. Transfection efficiencies were normalized with the b-galactosidase activity assay. Half-maximal effective concentration (EC50) was estimated using Prism software (GraphPad). All transfection experiments were performed at least three times.
(§3) In the following tables, proprietary compound EC50 values for hPPAR α, β, δ and γ are shown. The EC50 value is the concentration of a drug that induces a response halfway between the baseline and maximum, and is commonly used as a measure of drug potency. EC50 values are reported on a scale of 1 through 5, wherein the value scale is defined for each receptor as follows: […]

[4] = target: T4, Full Length hPPARγ (Homo sapiens, UniProt P37231); experiment: Full length hPPARγ transfection assay; conditions: full length receptor; scale 1-5; read-out: Full Length hPPAR γ EC50 (scaled number)
T4 construct: Full Length; expressed in transfected cells; host or cells: Cos cells
T4 sequence (P37231 1-505): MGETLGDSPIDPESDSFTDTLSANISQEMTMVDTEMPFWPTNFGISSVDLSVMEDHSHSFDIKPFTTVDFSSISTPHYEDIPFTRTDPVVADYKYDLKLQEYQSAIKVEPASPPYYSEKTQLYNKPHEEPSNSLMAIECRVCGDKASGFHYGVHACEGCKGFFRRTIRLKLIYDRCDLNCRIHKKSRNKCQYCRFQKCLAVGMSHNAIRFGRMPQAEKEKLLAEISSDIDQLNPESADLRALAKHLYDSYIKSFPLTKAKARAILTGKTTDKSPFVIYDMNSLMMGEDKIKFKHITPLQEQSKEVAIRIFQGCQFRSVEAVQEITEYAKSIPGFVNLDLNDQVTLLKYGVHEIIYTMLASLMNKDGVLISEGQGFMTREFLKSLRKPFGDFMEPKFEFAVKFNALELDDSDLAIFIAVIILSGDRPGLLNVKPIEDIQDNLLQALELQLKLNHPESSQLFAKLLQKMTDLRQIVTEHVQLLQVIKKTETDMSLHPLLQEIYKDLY
Description: as §2, §3

Compound	EC50 [1] [µM]	EC50 [2] [µM]	EC50 [3] [µM]	EC50 [4] [µM]
Cc1ccc(Cn2cc(COC(=O)c3ccc(SC(C)(C)C(=O)O)cc3)cn2)cc1 [Compound 3, 2-methyl-2-(4-(((1-(4-methylbenzyl)-1H-pyrazol-4-yl)methoxy)carbonyl)phenylthio)propanoic acid]	> 1	> 1	< 0.001	–
CC(C)(Sc1ccc(C(=O)OCc2cn(Cc3ccc(C(F)(F)F)cc3)nn2)cc1)C(=O)O [Compound 67, 2-methyl-2-(4-(((1-(4-(trifluoromethyl)benzyl)-1H-1,2,3-triazol-4-yl)methoxy)carbonyl)phenylthio)propanoic acid]	> 1	> 1	< 0.001	–
CC(C)(Sc1ccc(C(=O)OCc2cn(Cc3ccc(C(C)(C)C)cc3)nn2)cc1)C(=O)O [Compound 69, 2-(4-(((1-(4-tert-butylbenzyl)-1H-1,2,3-triazol-4-yl)methoxy)carbonyl)phenylthio)-2-methylpropanoic acid]	> 1	> 1	–	–
COC(c1ccc(Cn2cc(COC(=O)c3ccc(SC(C)(C)C(=O)O)cc3)nn2)cc1)(C(F)(F)F)C(F)(F)F [Compound 75, 2-(4-(((1-(4-(1,1,1,3,3,3-hexafluoro-2-methoxypropan-2-yl)benzyl)-1H-1,2,3-triazol-4-yl)methoxy)carbonyl)phenylthio)-2-methylpropanoic acid]	> 1	> 1	–	–
CC(C)(Sc1ccc(C(=O)OCCc2cn(Cc3ccc(C(F)(F)F)cc3)nn2)cc1)C(=O)O [Compound 91, 2-methyl-2-(4-((2-(1-(4-(trifluoromethyl)benzyl)-1H-1,2,3-triazol-4-yl)ethoxy)carbonyl)phenylthio)propanoic acid]	> 1	> 1	–	–
CCCn1c(COC(=O)c2ccc(OC(C)(C)C(=O)O)cc2)nn(Cc2ccc(C(C)(C)C)cc2)c1=O [Compound 150, 2-(4-(((1-(4-tert-butylbenzyl)-5-oxo-4-propyl-4,5-dihydro-1H-1,2,4-triazol-3-yl)methoxy)carbonyl)phenoxy)-2-methylpropanoic acid]	> 1	> 1	0.001 to 0.05	–
CCCCCCn1c(COC(=O)c2ccc(OC(C)(C)C(=O)O)cc2)nn(Cc2ccc(C)cc2)c1=O [Compound 151, 2-(4-(((4-hexyl-1-(4-methylbenzyl)-5-oxo-4,5-dihydro-1H-1,2,4-triazol-3-yl)methoxy)carbonyl)phenoxy)-2-methylpropanoic acid]	> 1	> 1	< 0.001	–
CCCCCCCCn1c(COC(=O)c2ccc(OC(C)(C)C(=O)O)cc2)nn(Cc2ccc(C)cc2)c1=O [Compound 152, 2-methyl-2-(4-(((1-(4-methylbenzyl)-4-octyl-5-oxo-4,5-dihydro-1H-1,2,4-triazol-3-yl)methoxy)carbonyl)phenoxy)propanoic acid]	> 1	> 1	< 0.001	–
CCCCCCn1c(COC(=O)c2ccc(OC(C)(C)C(=O)O)cc2)nn(Cc2ccc(C(C)(C)C)cc2)c1=O [Compound 188, 2-(4-(((1-(4-tert-butylbenzyl)-4-hexyl-5-oxo-4,5-dihydro-1H-1,2,4-triazol-3-yl)methoxy)carbonyl)phenoxy)-2-methylpropanoic acid]	> 1	> 1	< 0.001	–
CCCCCCCn1c(COC(=O)c2ccc(OC(C)(C)C(=O)O)cc2)nn(Cc2ccc(C(C)(C)C)cc2)c1=O [Compound 190, 2-(4-(((1-(4-tert-butylbenzyl)-4-heptyl-5-oxo-4,5-dihydro-1H-1,2,4-triazol-3-yl)methoxy)carbonyl)phenoxy)-2-methylpropanoic acid]	> 1	> 1	< 0.001	–

Next, values leading:

EC50 [1] [µM]	EC50 [2] [µM]	EC50 [3] [µM]	EC50 [4] [µM]	Compound
> 1	> 1	–	–	CCCc1nn(Cc2ccc(C(F)(F)F)cc2)cc1COC(=O)c1ccc(SC(C)(C)C(=O)O)cc1 [Compound 12, 2-methyl-2-(4-(((3-propyl-1-(4-(trifluoromethyl)benzyl)-1H-pyrazol-4-yl)methoxy)carbonyl)phenylthio)propanoic acid]
> 1	> 1	0.001 to 0.05	–	Cc1ccc(Cn2cc(COC(=O)c3ccc(SC(C)(C)C(=O)O)cc3)nn2)cc1 [Compound 60, 2-methyl-2-(4-(((1-(4-methylbenzyl)-1H-1,2,3-triazol-4-yl)methoxy)carbonyl)phenylthio)propanoic acid]
> 1	> 1	–	–	Cc1ccc(Cn2cc([C@@H](C)OC(=O)c3ccc(SC(C)(C)C(=O)O)cc3)nn2)cc1 [Compound 87, (R)-2-methyl-2-(4-((1-(1-(4-methylbenzyl)-1H-1,2,3-triazol-4-yl)ethoxy)carbonyl)phenylthio)propanoic acid]
> 1	> 1	0.001 to 0.05	–	CCCn1c(COC(=O)c2ccc(SC(C)(C)C(=O)O)cc2)nn(Cc2ccc(C(C)(C)C)cc2)c1=O [Compound 159, 2-(4-(((1-(4-tert-butylbenzyl)-5-oxo-4-propyl-4,5-dihydro-1H-1,2,4-triazol-3-yl)methoxy)carbonyl)phenylthio)-2-methylpropanoic acid]
0.051 to 0.2	> 1	< 0.001	0.201 to 0.999	CCCCCCn1c(COC(=O)c2ccc(SC(C)(C)C(=O)O)cc2)nn(Cc2ccc(C)cc2)c1=O [Compound 160, 2-(4-(((4-hexyl-1-(4-methylbenzyl)-5-oxo-4,5-dihydro-1H-1,2,4-triazol-3-yl)methoxy)carbonyl)phenylthio)-2-methylpropanoic acid]
> 1	> 1	< 0.001	–	CCCCCCCn1c(COC(=O)c2ccc(OC(C)(C)C(=O)O)cc2)nn(Cc2ccc(C)cc2)c1=O [Compound 192, 2-(4-(((4-heptyl-1-(4-methylbenzyl)-5-oxo-4,5-dihydro-1H-1,2,4-triazol-3-yl)methoxy)carbonyl)phenoxy)-2-methylpropanoic acid]
